# Assay results from patent publication US20160151347A1, “PHARMACEUTICAL COMPOUNDS” (ISIS Innovation LTD, priority 2013, published 2016).
# Key:
# [1] = system: human patient with sinus tachycardia; experiment: Case report: heart rate (ECG) of a human patient with sinus tachycardia and systemic lupus erythematosus
# Excerpt: The heart rate of a mammal is defined as the number of heart beats per unit of time, usually heart beats per minute (bpm). The heart rate or number of heart beats per unit of time can be determined using methods known in the art. Such a method may involve the simple measurement of a mammal's pulse. Alternatively, heart rate may be measured through the use of an electrocardiograph (ECG), which is readily available to those skilled in the art. Such a method involves counting the number of QRS complexes in the ECG.
# The patient was a person with no previous history of cardiac related disease.
# Furthermore, the glyceryl trinitrate spray was used whenever angina symptoms were experienced.
# In June 2009, the patient was diagnosed with systemic lupus erythematosus.
# On Aug. […] On Aug. […] On Sep.
# [2] = system: male Sprague-Dawley rats; experiment: Rat in-vivo blood pressure and heart rate study (anaesthetised, carotid cannula)
# Protocol: Data was acquired (200 Hz) in real time using a Biopac M100 system connected to a Dell P4 computer using AcqKnowledge software. Heart rate was triggered from the arterial blood pressure signal. Intravenous access was gained via the left external jugular vein using a 3 F cannula. After an equilibration period of at least 10 minutes, hydoxychloroquine (dissolved in sterile normal saline for injection and warmed to body temperature) was given as intravenous boluses over 30 seconds (1-30 mg/kg). […] Once a stable response had been reached, measurements were taken as an average over 30 seconds. On completion of the protocol, animals were euthanised with intraperitoneal injection of pentobarbitone. […] Data was acquired (200 Hz) in real time using a Biopac M100 system connected to a Dell P4 computer using AcqKnowledge software. Heart rate was triggered from the arterial blood pressure signal. Intravenous access was gained via the left external jugular vein using a 3 F cannula. After an equilibration period of at least 10 minutes, hydoxychloroquine (dissolved in sterile normal saline for injection and warmed to body temperature) was given as intravenous boluses over 30 seconds (1-30 mg/kg). […] Once a stable response had been reached, measurements were taken as an average over 30 seconds. On completion of the protocol, animals were euthanised with intraperitoneal injection of pentobarbitone.
# [3] = system: isolated guinea-pig sino-atrial node cells; experiment: Action potential recordings, current clamp in single isolated sino-atrial node cells; assay type: cell-based; conditions: 1 μM
# Protocol: Male guinea pigs (350-500 g) were sacrificed by concussion followed by cervical dislocation. The heart was rapidly excised and encouraged to beat several times in heparin-containing zero-Ca ^2+ modified Tyrode solution to prevent clotting (10 U/mL). The heart was mounted via the aorta on a constant pressure Langendorff system for retrograde perfusion, with solutions maintained at body temperature. After 2 minutes initial wash with zero Ca ^2+ solution (in mM: NaCl 136, KCI 5.4, NaHCO3 12, Na^+ pyruvate 1, NaH2PO4 1, MgCl2 1, EGTA 0.04, glucose 5; gassed with 95% O2/5% CO2 to maintain a pH of 7.4), perfusion was switched to re-circulation with collagenase solution (same as zero Ca^2+ but with 27 mg collagenase/50 mL—type II Worthington, Worthington Biochemical Corp., Lakewood, N.J., USA—0.1 mM CaCl2 and no EGTA).
# Following 25 minutes enzymatic digestion, the right atrium, vena-cavae and pulmonary artery were dissected away from the ventricles. The right atrium was pinned in a Sylgard-coated bath, opened by anterior incision, and the SA node identified from anatomical features and tissue appearance. Under a binocular microscope, the SA node appears as a translucent, smooth, white structure in contrast to the thicker, pinker surrounding atrial tissue. The SA node was dissected into thin strips 2×5 mm) and stored in a high potassium medium (in mM: KCI 70, MgCl2 5, K^+ glutamine 5, taurine 20, EGTA 0.04, succinic acid 5, KH2PO4 20, HEPES 5, glucose 10; pH to 7.2 with KOH). Isolation of single SA node myocytes was carried out by gentle trituration.
# For all single cell experiments, cells were transferred to a glass coverslip and superfused with oxygenated PSS at 34 ±1° C. using a gravity-fed system running at 2-3 mL/min. HCQ was applied via superfusion, with an electronic switching mechanism resulting in full solution exchange over a period of less than 20 seconds.
# Perforated patch clamp recordings were carried out using electrodes pulled from filamented borosilicate glass capillary tubing (GC100 F, Harvard Apparatus Ltd, Kent) using a two-stage vertical puller (Narishige, Japan). […]
# Micropipettes were mounted in a Perspex holder containing an Ag/AgCl wire and connected to a CV203BU headstage. All recordings were carried out using an AxoPatch 200B microelectrode system, digitised with a Digidata 1200 A-D converter, and recorded using PCIamp7 software at a sampling rate of 2 kHz (All products in this paragraph, Axon Instruments). […]
# Action potentials were recorded from single guinea pig SA node cells under current clamp conditions using the AxoPatch200B microelectrode system and rate measured in Hz using spectral analysis. […]
# [4] = system: C57BL/6 mice; parameters: species or system mouse; conditions: in vivo
# Excerpt: Automated non-invasive tail cuff plethysmography (Visitech 2000, Visitech, USA) was used to determine systolic blood pressure in response to HCQ in drinking water when compared to a control group (n=9/group). C57BL/6 mice were habituated for 5 days and then underwent measurements alternate day for 28 days. All measurements were taken in the morning at the same time of day. Twenty measurements were taken, the first 10 discarded and an average of valid recordings then taken for analysis.
# We assessed safety by performing long term feeding of mice at 100 mg/kg daily for 28 days with HCQ (FIG. 9) and measuring blood pressure by tail cuff plethysmography.
# [5] = system: If current; experiment: If current recordings, perforated patch voltage clamp in single isolated sinoatrial node cells; assay type: cell-based, guinea pig; conditions: for reduction in If current: 1 μM, 5 min exposure, n=7
# [6] = system: mouse atrial tissue preparations with intact sino-atrial node; experiment: Spontaneous beating rate of isolated mouse atrial preparations (tension transducer); assay type: cell-based; conditions: for reduction in beating rate from control: n=7 (Example 5); for decrease in spontaneous frequency: 30 minute exposure, n=6 (Example 3)
# Excerpt: (§1) Male CD-1 mice (7-9 weeks of age) were terminated by concussion followed by dislocation. The chest cavity was opened and heparinised solution (10 U/mL) applied around the heart to minimise clotting during dissection. The heart was rapidly excised and placed in warm, oxygenated modified Tyrode solution (PSS, in mM: NaCl 125, NaHCO3 25, KCl 5.4, NaH2PO4 1.2, MgCl2 1, glucose 5.5, CaCl2 1.8, pH to 7.4 with NaOH and oxygenated with 95% O2/5% CO2), the ventricular tissue discarded and the sino-atrial node region cleared of any overlying tissue.
# Loops of thin suture were tied to the lateral edges of each atrium by directly knotting around a small area of the tissue, taking care to avoid contact with the node itself. One loop was anchored to a hook, which also provided oxygenation to the organ bath, and the other tied to a tension transducer. The preparation was hung in an organ bath filled with PSS, maintained at 37° C. Tension data was digitised using a PowerLabs bridge amplifier and recorded on Chart5 software (all from ADlnstruments, UK). Beating rate was calculated in real-time from the upstroke of the tension signal using the Chart5 Ratemeter function.
# Spontaneously-beating atrial preparations were allowed to stabilise for 20 minutes, solution was exchanged for fresh, warmed, PSS and the preparation was again allowed to stabilise for 30 minutes. Drugs were added directly to the organ bath by pipette and allowed to equilibrate for 30 minutes before rate data was sampled.
# Male CD-1 mice (7-9 weeks of age) were terminated by concussion followed by dislocation.
# as §1, with “The” for “Male CD-1 mice (7-9 weeks of age) were terminated by concussion followed by dislocation. The”
# [7] = 3 μM, 5 mins superfusion, n=4 cells
compound,measurement,setting,value
CC(C)NCC(O)COc1ccc(CC(N)=O)cc1 (centres unmarked) [atenolol],side effects experienced,[1]; patient on atenolol,"tiredness associated with the onset of use of atenolol, low blood pressure and increased effects of Raynaud's syndrome"
same,heart rate,"[1]; patient treated with atenolol and a glyceryl trinitrate spray, about 118 bpm at rest before",70-80 bpm
"CCN(CCO)CCCC(C)Nc1ccnc2cc(Cl)ccc12 (centres unmarked) [hydroxychloroquine, 2-[{4-[(7-chloroquinolin-4-yl)amino]pentyl}(ethyl)amino]ethanol]",cumulative dose at which a significant transient reduction in heart rate is observed,[2]; cumulative intravenous doses,≥ 7.5 mg/kg
same,effect on blood pressure at low doses,"[2]; low intravenous doses (1-15 mg), n=6",without an effect on blood pressure
same,effect on blood pressure at very high doses,[2]; very high intravenous doses,an effect on blood pressure (which recovers over time)
same,heart rate,"[1]; 200 mg daily resumed Aug. 4, 2010, measured Sep. 16, 2010",80-88 bpm
same,stable heart rate,"[1]; 200 mg daily, August 2010 until December 2010",70-85 bpm
same,heart rate,"[1]; 200 mg to 400 mg Plaquenil per day, Atenolol completely ceased",70-80 bpm
same,recorded heart rate,"[1]; dose halved to 100 mg per day, ECG Aug. 3, 2010",109 bpm
same,reduction in cellular beating rate (action potential firing rate),"[3]; 3 mins of exposure, n=6",10±3%
same,lengthening in the time taken to reach 50% repolarisation,[3]; 5 min superfusion,11+/-3%
same,reduction in the slope of spontaneous diastolic depolarization,[3]; 5 min superfusion,25+/−3%
same,reduction in rate of spontaneous action potential generation (cellular beating rate),"[3]; 5 min superfusion, n=6, listed as HCQ",17±6%
same,"systolic blood pressure, baseline","[4]; C57BL/6, mouse",109.7±2.89 mmHg
same,start weight,[4]; mouse,27.72 ± 0.36 g
same,reduction in If current,[5]; −80 mV voltage step,20+/−4%
same,reduction in If current,[5]; −100 mV step,12+/−4%
same,maximal conductance of I(f),[5]; [7],85±6 % of control
same,voltage of half-activation (V50) and slope of conductance,[5]; [7],unchanged
same,reduction in beating rate from control,[6]; 3 μM cumulative dose,9±3%
same,decrease in spontaneous frequency,[6]; 3 μM,11%
same,reduction in beating rate from control,[6]; 10 μM cumulative dose,15±2%
same,decrease in spontaneous frequency,[6]; 10 μM,20%
